The record followed here is US9540362B2, “Sphingosine-1-phosphate receptor agonists, methods of preparing the same, and pharmaceutical compositions containing the same as an active agent” (LG LIFE SCIENCES LTD., priority 2013, dated 2017).

The subject of test [1] is lymphocytes in blood. Nature of the test: Rat peripheral blood lymphocyte decrease. It is filed as in vivo. The following applies: male SD rat, administered once, 1 mg/kg, 6 hours after administration. As to the method: Evaluation of Rat Peripheral Blood Lymphocyte Decrease
Lymphocyte decrease in blood by S1P1 agonist was evaluated using a male SD rat. After adapting a rat weighing about 250 g to a breeding facility for one week, a test compound was administered to it once. At 3 hours, 6 hours, 24 hours and 48 hours after administration, blood was taken from a tail caudal vein, and about 200 μl of the blood was put into an EDTA tube while preventing it from clotting, followed by measurement of the number of lymphocytes in blood. The number of lymphocytes was analyzed by a hematological examination device, Hemoanalyzer. The doses of the test compounds were 3 mg/kg for Example 52, 94, 108, 117, 142, 145, 146, 148 and 149 compounds, and 1 mg/kg for Example 150, 151, 153, 154, 155, 158, 159 and 161 compounds.

The target of test [2] is human sphingosine-1-phosphate 1 receptor (S1P1 receptor) (Homo sapiens, UniProt P21453). Nature of the test: Ca2+ inducing ability using CHO cells overexpressing human S1P1 receptor (Calcium 5 assay kit). The class given is cell-based. The conditions noted are these: CHO cells overexpressing human S1P1, calcium RFU; S1P 1 μM = 100%. From the text:
Evaluation of Ca^2+ inducing ability of test compound using a cell line expressing human sphingosine-1-phosphate
CHO (Chinese hamster ovary) cells which overexpress human sphingosine-1-phosphate 1 receptor (S1P1 receptor) that react with sphingosine-1-phosphate (S1P) are used for a functional test method wherein an increase of calcium indicates a therapeutic efficacy of an agonist compound.
To prepare CHO cells which overexpress human S1P1˜S1P5, human clones for each subtype having HA at the N terminal residue (S1P1: EDG010TN00, S1P2: EDG020TN00, S1P3: EDG030TN00, S1P4: EDG060TN00, S1P5: EDG080TN00) were purchased from the Missouri S&T cDNA Resource Center and co-transfected with G-protein alpha subunit (G-alpha-16) into CHO-K1 cells.
A calcium measurement kit (Calcium 5 assay kit, Molecular Devices) was used to select an agonist compound. The principle of calcium measurement is that calcium-sensitive dyes are applied to cells, they enter into the cytoplasm of the cells during incubation, and when a ligand binds to a certain receptor to release calcium into the cytoplasm, the dyes bind to said calcium to induce fluorescence which is measured. This test method can sensitively measure only the intracellular calcium concentration change because any change that may occur outside the cells is masked by a masking dye.
The experimental procedure was as follows. One day before calcium measurement, CHO cells overexpressing hS1P1˜hS1P5 were dispensed into a 96-well plate (bottom clear black well) in 3×10^4 cells per well and cultured at 37° C. under 5% carbon dioxide condition for one day. 100 μl of calcium dyes mixed with Assay Buffer (1×HBSS, 20 mM HEPES, 2.5 mM probenecid, pH 7.4) were dispensed into culture solution in well and cultured at 37° C. for one hour. Test compounds were dissolved in 100% DMSO to prepare 1 μl solution per each concentration, and each solution was mixed with 199 μl Assay Buffer such that the concentrations were 50, 5, 0.5, 0.05, 0.005 and 0.0005 μM. The plate cultured with the calcium dyes was put into FlaxstationII (Molecular Devices), and the prepared test compounds (the final concentrations of the test compounds: 10, 1, 0.1, 0.01, 0.001 and 0.0001 μM) were programmed to be automatically inoculated in 50 μl per each well. For a total of 90 seconds, RFU (relative fluorescence unit) values were measured. The value of Reference (S1P substance 1 μM) deducting the blank value was set as 100%, and EC50 values of the test compounds were calculated by prism.

Structures are written as SMILES.

human sphingosine-1-phosphate 1 receptor (S1P1 receptor), sequence (P21453 whole entry): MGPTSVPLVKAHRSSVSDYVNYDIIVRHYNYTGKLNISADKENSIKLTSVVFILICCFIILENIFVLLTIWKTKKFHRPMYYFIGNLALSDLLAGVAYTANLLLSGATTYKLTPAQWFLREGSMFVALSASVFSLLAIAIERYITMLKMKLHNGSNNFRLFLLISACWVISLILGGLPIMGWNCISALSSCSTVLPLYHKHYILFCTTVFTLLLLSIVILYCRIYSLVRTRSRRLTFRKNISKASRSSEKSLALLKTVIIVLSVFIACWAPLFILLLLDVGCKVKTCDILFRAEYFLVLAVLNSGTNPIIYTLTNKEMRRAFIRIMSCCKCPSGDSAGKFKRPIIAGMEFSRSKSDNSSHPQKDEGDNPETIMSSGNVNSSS

Consider `CC(C)n1nc(Cl)c2cc(COc3ccc4c(c3)CCC(CN3CCC(C(=O)O)C3)=C4Cl)ccc21` (stereo not shown) [Example 150, 1-[1-chloro-6-(3-chloro-1-isopropyl-1H-indazol-5-ylmethoxy)-3,4-dihydro-naphthalen-2-ylmethyl]-pyrrolidine-3-carboxylic acid], for which the “Lymphocyte count (degree of decrease in lymphocyte number)” value in test [1] is listed as −82%. Besides, the half-maximal effective concentration (EC50) in test [2] stood at 8 nM.

On to `CC(C)n1nc(Cl)c2cc(COc3ccc4c(c3)CCC(CN3CC[C@@H](C(=O)O)C3)=C4Cl)ccc21` [Example 151, (R)-1-[1-chloro-6-(3-chloro-1-isopropyl-1H-indazol-5-ylmethoxy)-3,4-dihydro-naphthalen-2-ylmethyl]-pyrrolidine-3-carboxylic acid], for which, in test [1], the “Lymphocyte count (degree of decrease in lymphocyte number)” value is listed as −80%. The EC50 in test [2] is 11 nM.

For the molecule `CC(C)n1nc(Cl)c2cc(COc3ccc4c(c3)CCC(CN3CCC(C(=O)O)CC3)=C4Cl)ccc21` [Example 153, 1-[1-chloro-6-(3-chloro-1-isopropyl-1H-indazol-5-ylmethoxy)-3,4-dihydro-naphthalen-2-ylmethyl]-piperidine-4-carboxylic acid], the “Lymphocyte count (degree of decrease in lymphocyte number)” value in test [1] is recorded as −80%. Further, in test [2], the EC50 is 11 nM.

Consider `CC(C)n1nc(Cl)c2cc(COc3ccc4c(c3)CCC(CN3CCC(F)(C(=O)O)CC3)=C4Cl)ccc21` [Example 154, 1-[1-chloro-6-(3-chloro-1-isopropyl-1H-indazol-5-ylmethoxy)-3,4-dihydro-naphthalen-2-ylmethyl]-4-fluoro-piperidine-4-carboxylic acid], for which, in test [1], the “Lymphocyte count (degree of decrease in lymphocyte number)” value was −65%. Besides, in test [2], the EC50 is 17 nM.

For `CC(C)n1nc(Cl)c2cc(COc3ccc4c(c3)CCC(CN3CCCC(C(=O)O)C3)=C4Cl)ccc21` (stereo not shown) [Example 155, 1-[1-chloro-6-(3-chloro-1-isopropyl-1H-indazol-5-ylmethoxy)-3,4-dihydro-naphthalen-2-ylmethyl]-piperidine-3-carboxylic acid], in test [1], the “Lymphocyte count (degree of decrease in lymphocyte number)” value is recorded as −75%. The concentration for a half-maximal effect (EC50) in test [2] was determined as 27 nM.

Consider `CC(C)n1nc(Cl)c2cc(COc3ccc4c(c3)CCC(CN3CCCC(F)(C(=O)O)C3)=C4Cl)ccc21` (stereo not shown) [Example 158, 1-[1-chloro-6-(3-chloro-1-isopropyl-1H-indazol-5-ylmethoxy)-3,4-dihydro-naphthalen-2-ylmethyl]-3-fluoro-piperidine-3-carboxylic acid], for which the “Lymphocyte count (degree of decrease in lymphocyte number)” value in test [1] is given as −30%. The 50% effective concentration (EC50) in test [2] worked out at 14 nM.

Take `CC(C)n1nc(Cl)c2cc(COc3ccc4c(c3)CCC(CN3CCC(C(=O)O)CC3)=C4Cl)cnc21` [Example 159, 1-[1-chloro-6-(3-chloro-1-isopropyl-1H-pyrazolo[3,4-b]pyridin-5-ylmethoxy)-3,4-dihydro-naphthalen-2-ylmethyl]-piperidine-4-carboxylic acid]: the “Lymphocyte count (degree of decrease in lymphocyte number)” value in test [1] is reported as −80%. Further, the EC50 in test [2] was determined as 12 nM.

For the molecule `CC(C)n1nc(Cl)c2cc(COc3ccc4c(c3)CCC(CN3CCC(F)(C(=O)O)C3)=C4Cl)ccc21` (stereo not shown) [Example 161, 1-[1-chloro-6-(3-chloro-1-isopropyl-1H-indazol-5-ylmethoxy)-3,4-dihydro-naphthalen-2-ylmethyl]-3-fluoro-pyrrolidine-3-carboxylic acid], in test [1], the “Lymphocyte count (degree of decrease in lymphocyte number)” value is on record as −65%. Moreover, in test [2], the EC50 worked out at 3 nM.

The EC50 is the midpoint of the concentration-response curve.
